Assay [1] relates to E. coli W3110. Kind of assay: Propidium iodide (PI) assay of membrane permeability. It counts as cell-based, Escherichia coli. Particulars: E. coli W3110 logarithmic-phase, 15 min treatment with 5 μM peptide, PI 25 μg/mL 15 min (Fig. 5A). On the procedure:
Propidium Iodide (PI) assay
Thaw the previously preserved E. coli W3110 cells from the -80 °C freezer. Scrape a small amount and inoculate it into 1 mL of LB liquid medium. Culture overnight in a 37°C shaker. Next day, inoculate the strain into fresh LB liquid medium at a 1:100 ratio and incubate at 37 °C until the OD600 reaches approximately 0.47 to 0.53. Take 100 μL of the E. coli W3110 cells and centrifuge for 2 min at 13,000 rpm. Discard the supernatant. For the untreated group, resuspend the cells in 100 μL of PBS. For the peptide treatment group, resuspend the cells in 99 μL of ddH2O and add 1 […]
μL of 0.5 mM of the different peptides. Mix thoroughly and let react for 15 min. After the treatment, take 80 μL of each sample and incubate with PI at a final concentration of 25 μg/mL for 15 min.
After incubation, wash the samples with the same amount of PBS, centrifuge, and resuspend at a 10-fold concentration. Observe the images using a Nikon Eclipse Ci-L Plus microscope. […]
Incubate overnight in a 37°C shaker. […]
Centrifuge again at
6100g for 10 min, discard the supernatant, and add 500 μL of ddH2O containing 2.5% glutaraldehyde. Resuspend and fix the cells overnight at 4°C. Centrifuge at 6100g for 10 min, remove the supernatant, and wash twice with ddH2O, letting it stand for 15 min each time, followed by centrifugation at 6100g for 10 min. Discard the supernatant. Dehydrate the sample with ethanol at concentration gradients of 30%, 60%, and 90%, without resuspension, centrifuging at 6100g for […]

Assay [2] relates to E. coli W3110. The experiment in a line: Scanning electron microscopy of cell morphology. The conditions noted are these: E. coli W3110 logarithmic-phase, 4 h treatment at 2 μM and 5 μM (Fig. 5B, S11). It counts as cell-based, Escherichia coli. On the procedure:
Thaw the previously preserved E. coli W3110 cells from the -80 °C freezer. […]
Scanning electron microscopy
Thaw the previously preserved E. coli W3110 cells from the -80°C freezer. Scrape a small amount and inoculate it into 1 mL of LB liquid medium. Incubate overnight in a 37°C shaker. The next day, inoculate the strain into fresh LB liquid medium at a 1:100 ratio and incubate at 37°C until the OD600 reaches approximately 0.47 to 0.53. Take 500 μL of E. coli W3110 cells, centrifuge for 10 min at 4000 rpm, and discard the supernatant. Resuspend the cells in 500 μL of PBS, then centrifuge again at 4000 rpm for 10 min and discard the supernatant. Dissolve various macrocyclic peptides in DMSO and dilute to the required concentration. Resuspend the untreated group in 500 μL of PBS.
For the peptide treatment group, resuspend in 495 μL of ddH2O, add 5 μL of 0.2 mM or 0.5 mM peptides, mix well, and let react for 4 h.
After the treament, spot 4 μL of the sample on plates. Perform the first ten-fold dilution and mix, then continue with the second to fifth ten-fold dilutions. Incubate the plates inverted overnight in a 37°C incubator. Scan and count the colonies. For the remaining 492 μL, centrifuge at 6100g for 10 min, discard the supernatant, add 500 μL of ddH2O, and let it stand for 15 min. Centrifuge again at 6100g for 10 min, discard the supernatant, and add 500 μL of ddH2O containing 2.5% glutaraldehyde. Resuspend and fix the cells overnight at 4°C. Centrifuge at 6100g for 10 min, remove the supernatant, and wash twice with ddH2O, letting it stand for 15 min each time, followed by centrifugation at 6100g for 10 min. Discard the supernatant. Dehydrate the sample with ethanol at concentration gradients of 30%, 60%, and 90%, without resuspension, centrifuging at 6100g for […]
10 min and discarding the supernatant after each step. Finally, use 100% ethanol, rest for 15 min, centrifuge at 6100g for 10 min, discard the supernatant, and repeat with 100% ethanol, leaving about 10 μL. Then the critical point was dried and sprayed with gold, and the images were observed by […]
Prediction of binding sites between peptides and the BAM complex
Firstly, the fpocket algorithm was used, a rapid method for pocket prediction based on the three-dimensional structure of BAM complex (PDB ID: 5AYW). This method establishes a grid surrounding the protein, positioning alpha spheres on grid points devoid of spatial conflicts with protein atoms, subsequently utilizing a clustering algorithm to ascertain whether these regions constitute potential binding pockets. Alpha spheres were designated with radii ranging from 3.4Å to 6.2Å, with a prerequisite of at least 15 alpha spheres for a region to be considered a pocket. […]
PepNN evaluated each amino acid for its potentiality as a peptide binding site. […]

Assay [3] concerns Gram-negative bacteria. The conditions noted are these: cited from earlier work. The source says:
Furthermore, conjugating the R9 peptide to antimicrobial peptides enhances antibacterial activity, particularly increasing effectiveness against Gram-negative bacteria.[49–51] ...

With nona-arginine [R9, reference compound], the “PI red fluorescence (cell membrane permeability)” value in assay [1] is given as “weak red fluorescence”. Also, the “morphological changes by scanning electron microscopy” value in assay [2] was “slight shrinkage and partial rupture”. Further, the anti-Gram-negative bacterial activity result in assay [3] is recorded as “low anti-Gram-negative bacterial activity”.
